Laboratory results as given in PubChem BioAssay (NCI).
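Dose response: 5 concentrations. Exposure: 48 h. Format: 96-well plates. Endpoint: linear interpolation; highest concentration if not reached. TGI marks complete inhibition of growth.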

Each molecule was assayed on NCI-H23 lung (assay: inhibition of tumour cell growth, NCI panel, 48 h).

SMILES	TGI
COc1ccc(C(=C2C=CC=C2)c2ccc(OC)cc2)cc1	> 100 µM
Oc1ccc(-c2nc3ccc(Br)cc3s2)cc1	76 µM
Nc1nc(SCCC/C=C/I)nc2c1ncn2C1OC(COP(=O)(O)O)C(O)C1O (configuration not stated)	> 100 µM
Nc1c(S(=O)(=O)O)cc2cc(S(=O)(=O)O)ccc2c1N=Nc1ccc(-c2ccc(N=Nc3c(N)c(S(=O)(=O)O)cc4cc(S(=O)(=O)O)ccc34)c(S(=O)(=O)O)c2)cc1	> 100 µM
N=c1nnc2ccc(Cl)cc2n1O	> 100 µM
CCN(CC)CCNC(=O)c1cc2cc(NC(=O)c3cc4cc([N+](=O)[O-])ccc4[nH]3)ccc2[nH]1	> 100 µM
CC1=C(Cl)C=CP(=O)(Oc2ccccc2)C1 (configuration not stated)	> 100 µM
COc1ccc(/C=c2\sc3n(c2=O)CCN=3)cc1	> 100 µM

These molecules were tested on SN12C renal (assay: inhibition of tumour cell growth, NCI panel, 48 h).

SMILES	TGI
COc1ccc(C(=C2C=CC=C2)c2ccc(OC)cc2)cc1	81.3 µM
Oc1ccc(-c2nc3ccc(Br)cc3s2)cc1	49.6 µM
Nc1nc(SCCC/C=C/I)nc2c1ncn2C1OC(COP(=O)(O)O)C(O)C1O (configuration not stated)	> 100 µM
Nc1c(S(=O)(=O)O)cc2cc(S(=O)(=O)O)ccc2c1N=Nc1ccc(-c2ccc(N=Nc3c(N)c(S(=O)(=O)O)cc4cc(S(=O)(=O)O)ccc34)c(S(=O)(=O)O)c2)cc1	> 100 µM
N=c1nnc2ccc(Cl)cc2n1O	> 100 µM
CCN(CC)CCNC(=O)c1cc2cc(NC(=O)c3cc4cc([N+](=O)[O-])ccc4[nH]3)ccc2[nH]1	> 100 µM
COc1ccc(/C=c2\sc3n(c2=O)CCN=3)cc1	> 100 µM

These molecules were tested on KM12 colon (assay: inhibition of tumour cell growth, NCI panel, 48 h).

SMILES	TGI
COc1ccc(C(=C2C=CC=C2)c2ccc(OC)cc2)cc1	> 100 µM
Oc1ccc(-c2nc3ccc(Br)cc3s2)cc1	41.6 µM
Nc1nc(SCCC/C=C/I)nc2c1ncn2C1OC(COP(=O)(O)O)C(O)C1O (configuration not stated)	> 100 µM
Nc1c(S(=O)(=O)O)cc2cc(S(=O)(=O)O)ccc2c1N=Nc1ccc(-c2ccc(N=Nc3c(N)c(S(=O)(=O)O)cc4cc(S(=O)(=O)O)ccc34)c(S(=O)(=O)O)c2)cc1	> 100 µM
N=c1nnc2ccc(Cl)cc2n1O	> 100 µM
CC1=C(Cl)C=CP(=O)(Oc2ccccc2)C1 (configuration not stated)	> 100 µM
COc1ccc(/C=c2\sc3n(c2=O)CCN=3)cc1	> 100 µM

Each molecule was assayed on OVCAR-5 ovarian (assay: inhibition of tumour cell growth, NCI panel, 48 h).

SMILES	TGI
COc1ccc(C(=C2C=CC=C2)c2ccc(OC)cc2)cc1	88.5 µM
Oc1ccc(-c2nc3ccc(Br)cc3s2)cc1	63.8 µM
Nc1nc(SCCC/C=C/I)nc2c1ncn2C1OC(COP(=O)(O)O)C(O)C1O (configuration not stated)	> 100 µM
Nc1c(S(=O)(=O)O)cc2cc(S(=O)(=O)O)ccc2c1N=Nc1ccc(-c2ccc(N=Nc3c(N)c(S(=O)(=O)O)cc4cc(S(=O)(=O)O)ccc34)c(S(=O)(=O)O)c2)cc1	> 100 µM
N=c1nnc2ccc(Cl)cc2n1O	> 100 µM
CCN(CC)CCNC(=O)c1cc2cc(NC(=O)c3cc4cc([N+](=O)[O-])ccc4[nH]3)ccc2[nH]1	> 100 µM
CC1=C(Cl)C=CP(=O)(Oc2ccccc2)C1 (configuration not stated)	> 100 µM
COc1ccc(/C=c2\sc3n(c2=O)CCN=3)cc1	> 100 µM

What follows are molecules tested on SK-OV-3 ovarian (assay: inhibition of tumour cell growth, NCI panel, 48 h).

SMILES	TGI
COc1ccc(C(=C2C=CC=C2)c2ccc(OC)cc2)cc1	> 100 µM
Oc1ccc(-c2nc3ccc(Br)cc3s2)cc1	51.4 µM
Nc1nc(SCCC/C=C/I)nc2c1ncn2C1OC(COP(=O)(O)O)C(O)C1O (configuration not stated)	> 100 µM
Nc1c(S(=O)(=O)O)cc2cc(S(=O)(=O)O)ccc2c1N=Nc1ccc(-c2ccc(N=Nc3c(N)c(S(=O)(=O)O)cc4cc(S(=O)(=O)O)ccc34)c(S(=O)(=O)O)c2)cc1	> 100 µM
N=c1nnc2ccc(Cl)cc2n1O	> 100 µM
CCN(CC)CCNC(=O)c1cc2cc(NC(=O)c3cc4cc([N+](=O)[O-])ccc4[nH]3)ccc2[nH]1	71.4 µM
COc1ccc(/C=c2\sc3n(c2=O)CCN=3)cc1	> 100 µM

Each molecule was assayed on HOP-62 NSCLC (assay: inhibition of tumour cell growth, NCI panel, 48 h).

SMILES	TGI
COc1ccc(C(=C2C=CC=C2)c2ccc(OC)cc2)cc1	> 100 µM
Nc1nc(SCCC/C=C/I)nc2c1ncn2C1OC(COP(=O)(O)O)C(O)C1O (configuration not stated)	> 100 µM
Nc1c(S(=O)(=O)O)cc2cc(S(=O)(=O)O)ccc2c1N=Nc1ccc(-c2ccc(N=Nc3c(N)c(S(=O)(=O)O)cc4cc(S(=O)(=O)O)ccc34)c(S(=O)(=O)O)c2)cc1	> 100 µM
N=c1nnc2ccc(Cl)cc2n1O	> 100 µM
CCN(CC)CCNC(=O)c1cc2cc(NC(=O)c3cc4cc([N+](=O)[O-])ccc4[nH]3)ccc2[nH]1	> 100 µM
CC1=C(Cl)C=CP(=O)(Oc2ccccc2)C1 (configuration not stated)	> 100 µM
COc1ccc(/C=c2\sc3n(c2=O)CCN=3)cc1	> 100 µM

These molecules were tested on NCI-H226 lung (assay: inhibition of tumour cell growth, NCI panel, 48 h).

SMILES	TGI
COc1ccc(C(=C2C=CC=C2)c2ccc(OC)cc2)cc1	> 100 µM
Oc1ccc(-c2nc3ccc(Br)cc3s2)cc1	39.9 µM
Nc1nc(SCCC/C=C/I)nc2c1ncn2C1OC(COP(=O)(O)O)C(O)C1O (configuration not stated)	> 100 µM
Nc1c(S(=O)(=O)O)cc2cc(S(=O)(=O)O)ccc2c1N=Nc1ccc(-c2ccc(N=Nc3c(N)c(S(=O)(=O)O)cc4cc(S(=O)(=O)O)ccc34)c(S(=O)(=O)O)c2)cc1	> 100 µM
N=c1nnc2ccc(Cl)cc2n1O	> 100 µM
CCN(CC)CCNC(=O)c1cc2cc(NC(=O)c3cc4cc([N+](=O)[O-])ccc4[nH]3)ccc2[nH]1	> 87.3 µM

What follows are molecules tested on OVCAR-4 ovarian (assay: inhibition of tumour cell growth, NCI panel, 48 h).

SMILES	TGI
COc1ccc(C(=C2C=CC=C2)c2ccc(OC)cc2)cc1	> 100 µM
Nc1nc(SCCC/C=C/I)nc2c1ncn2C1OC(COP(=O)(O)O)C(O)C1O (configuration not stated)	> 100 µM
Nc1c(S(=O)(=O)O)cc2cc(S(=O)(=O)O)ccc2c1N=Nc1ccc(-c2ccc(N=Nc3c(N)c(S(=O)(=O)O)cc4cc(S(=O)(=O)O)ccc34)c(S(=O)(=O)O)c2)cc1	74.7 µM
CCN(CC)CCNC(=O)c1cc2cc(NC(=O)c3cc4cc([N+](=O)[O-])ccc4[nH]3)ccc2[nH]1	> 100 µM
CC1=C(Cl)C=CP(=O)(Oc2ccccc2)C1 (configuration not stated)	> 100 µM
COc1ccc(/C=c2\sc3n(c2=O)CCN=3)cc1	> 100 µM

The molecules below were run on HL-60(TB) leukemia (assay: inhibition of tumour cell growth, NCI panel, 48 h).

SMILES	TGI
COc1ccc(C(=C2C=CC=C2)c2ccc(OC)cc2)cc1	> 100 µM
Oc1ccc(-c2nc3ccc(Br)cc3s2)cc1	56.3 µM
Nc1nc(SCCC/C=C/I)nc2c1ncn2C1OC(COP(=O)(O)O)C(O)C1O (configuration not stated)	> 100 µM
Nc1c(S(=O)(=O)O)cc2cc(S(=O)(=O)O)ccc2c1N=Nc1ccc(-c2ccc(N=Nc3c(N)c(S(=O)(=O)O)cc4cc(S(=O)(=O)O)ccc34)c(S(=O)(=O)O)c2)cc1	> 100 µM
N=c1nnc2ccc(Cl)cc2n1O	> 100 µM
CC1=C(Cl)C=CP(=O)(Oc2ccccc2)C1 (configuration not stated)	> 10 µM
COc1ccc(/C=c2\sc3n(c2=O)CCN=3)cc1	> 100 µM

What follows are molecules tested on HCT-116 colon (assay: inhibition of tumour cell growth, NCI panel, 48 h).

SMILES	TGI
COc1ccc(C(=C2C=CC=C2)c2ccc(OC)cc2)cc1	84.8 µM
Oc1ccc(-c2nc3ccc(Br)cc3s2)cc1	64.1 µM
Nc1nc(SCCC/C=C/I)nc2c1ncn2C1OC(COP(=O)(O)O)C(O)C1O (configuration not stated)	> 100 µM
Nc1c(S(=O)(=O)O)cc2cc(S(=O)(=O)O)ccc2c1N=Nc1ccc(-c2ccc(N=Nc3c(N)c(S(=O)(=O)O)cc4cc(S(=O)(=O)O)ccc34)c(S(=O)(=O)O)c2)cc1	> 100 µM
N=c1nnc2ccc(Cl)cc2n1O	> 100 µM
CCN(CC)CCNC(=O)c1cc2cc(NC(=O)c3cc4cc([N+](=O)[O-])ccc4[nH]3)ccc2[nH]1	> 100 µM
CC1=C(Cl)C=CP(=O)(Oc2ccccc2)C1 (configuration not stated)	> 100 µM
COc1ccc(/C=c2\sc3n(c2=O)CCN=3)cc1	> 100 µM

What follows are molecules tested on HCT-15 colon (assay: inhibition of tumour cell growth, NCI panel, 48 h).

SMILES	TGI
COc1ccc(C(=C2C=CC=C2)c2ccc(OC)cc2)cc1	74 µM
